Source: ChEMBL document CHEMBL1255394, “Antimicrobial susceptibilities of multidrug-resistant Campylobacter jejuni and C. coli strains: in vitro activities of 20 antimicrobial agents” (2010)
In brackets after ≈: the same amount, converted by molar mass.

Experiments:
Type in all cases: functional
[1] = tested on: Campylobacter sp.; assay: Antibacterial activity against erythromycin resistant Campylobacter sp. by agar plate dilution method
[2] = tested on: Campylobacter sp.; assay: Antibacterial activity against erythromycin susceptible Campylobacter sp. assessed as resistance breakpoint by CLSI method
[3] = tested on: Campylobacter coli; assay: Antibacterial activity against Campylobacter coli assessed as resistant isolates by disk diffusion method
[4] = tested on: Campylobacter jejuni; assay: Antibacterial activity against Campylobacter jejuni assessed as resistant isolates by disk diffusion method
[5] = tested on: Campylobacter sp.; assay: Antibacterial activity against erythromycin resistant Campylobacter sp. assessed as resistance breakpoint by CLSI method
[6] = tested on: Campylobacter sp.; assay: Antibacterial activity against Campylobacter sp. assessed as resistance breakpoint by CLSI method
[7] = tested on: Campylobacter sp.; assay: Antibacterial activity against erythromycin susceptible Campylobacter sp. by agar plate dilution method
[8] = tested on: Campylobacter sp.; assay: Antimicrobial activity against erythromycin resistant Campylobacter sp. assessed as clear zone of inhibition by disk diffusion method
[9] = tested on: Campylobacter sp.; assay: Antimicrobial activity against erythromycin susceptible Campylobacter sp. assessed as clear zone of inhibition by disk diffusion method
[10] = tested on: Campylobacter sp.; assay: Antibacterial activity against erythromycin susceptible Campylobacter sp. after 48 hrs by Etest method
[11] = tested on: Campylobacter sp.; assay: Antibacterial activity against erythromycin resistant Campylobacter sp. after 48 hrs by Etest method
[12] = tested on: Campylobacter sp.; assay: Antibacterial activity against Campylobacter sp. assessed as resistance breakpoint by EUCAST method

Row | Compound | MIC50 [1] [µg/mL] | MIC90 [1] [µg/mL] | Activity [2] [%] | Activity [3] [%] | Activity [4] [%] | Activity [5] [%] | Activity [6] [µg/mL] | MIC50 [7] [µg/mL] | MIC90 [7] [µg/mL] | inhibition zone (IZ) [8] | inhibition zone (IZ) [9] [mm] | MIC50 [10] [µg/mL] | MIC90 [10] [µg/mL] | MIC50 [11] [µg/mL] | MIC90 [11] [µg/mL] | Activity [12] [µg/mL]
1 | CC1(C)S[C@@H]2[C@H](NC(=O)[C@H](N)c3ccccc3)C(=O)N2[C@H]1C(=O)O [AMPICILLIN] | 8 (≈ 22.9 µM) | 128 (≈ 366 µM) | 16.6 | 22.2 | 18.2 | 36.8 | 32 | 0.5 (≈ 1.43 µM) | 32 (≈ 91.6 µM) | – | – | – | – | – | – | –
2 | CC[C@H]1OC(=O)[C@H](C)[C@@H](O[C@H]2C[C@@](C)(OC)[C@@H](O)[C@H](C)O2)[C@H](C)[C@@H](O[C@@H]2O[C@H](C)C[C@H](N(C)C)[C@H]2O)[C@](C)(O)C[C@@H](C)CN(C)[C@H](C)[C@@H](O)[C@]1(C)O [AZITHROMYCIN] | > 128 | > 128 | 0.5 | 38.9 | 5 | 89.5 | 4 | 0.25 (≈ 0.334 µM) | 0.5 (≈ 0.668 µM) | – | – | – | – | – | – | –
3 | O=C(N[C@H](CO)[C@H](O)c1ccc([N+](=O)[O-])cc1)C(Cl)Cl [CHLORAMPHENICOL] | 4 (≈ 12.4 µM) | 16 (≈ 49.5 µM) | 0.5 | 0 | 0.5 | 0 | 32 | 0.125 (≈ 0.387 µM) | 8 (≈ 24.8 µM) | – | – | – | – | – | – | –
4 | O=C(O)c1cn(C2CC2)c2cc(N3CCNCC3)c(F)cc2c1=O [CIPROFLOXACIN] | 16 (≈ 48.3 µM) | > 32 | – | – | 42.4 | – | – | 0.5 (≈ 1.51 µM) | 1 (≈ 3.02 µM) | – | – | – | – | – | – | –
5 | CC[C@H]1OC(=O)[C@H](C)[C@@H](O[C@H]2C[C@@](C)(OC)[C@@H](O)[C@H](C)O2)[C@H](C)[C@@H](O[C@@H]2O[C@H](C)C[C@H](N(C)C)[C@H]2O)[C@](C)(OC)C[C@@H](C)C(=O)[C@H](C)[C@@H](O)[C@]1(C)O [CLARITHROMYCIN] | > 128 | > 128 | – | – | – | – | – | 0.25 (≈ 0.334 µM) | 128 (≈ 171 µM) | – | – | – | – | – | – | –
6 | CCC[C@@H]1C[C@@H](C(=O)N[C@@H]([C@H]2O[C@H](SC)[C@H](O)[C@@H](O)[C@H]2O)[C@H](C)Cl)N(C)C1 [CLINDAMYCIN] | 64 (≈ 151 µM) | 64 (≈ 151 µM) | 1.4 | 50 | 5 | 89.5 | 8 | 2 (≈ 4.71 µM) | 4 (≈ 9.41 µM) | – | – | – | – | – | – | –
7 | CC[C@H]1OC(=O)[C@H](C)[C@@H](O[C@H]2C[C@@](C)(OC)[C@@H](O)[C@H](C)O2)[C@H](C)[C@@H](O[C@@H]2O[C@H](C)C[C@H](N(C)C)[C@H]2O)[C@](C)(O)C[C@@H](C)C(=O)[C@H](C)[C@@H](O)[C@]1(C)O [ERYTHROMYCIN] | > 128 | > 128 | 0 | 50 | 4.5 | 100 | 16 | 2 (≈ 2.73 µM) | 4 (≈ 5.45 µM) | <=23 mm | >23 | – | – | – | – | –
8 | C[C@@H](O)[C@H]1C(=O)N2C(C(=O)O)=C(SCCNC=N)C[C@H]12 [IMIPENEM ANHYDROUS] | 0.25 (≈ 0.835 µM) | 0.5 (≈ 1.67 µM) | 0 | 0 | 0 | 0 | 16 | 0.016 (≈ 0.0534 µM) | 0.25 (≈ 0.835 µM) | – | – | – | – | – | – | –
9 | C[C@H]1COc2c(N3CCN(C)CC3)c(F)cc3c(=O)c(C(=O)O)cn1c23.C[C@H]1COc2c(N3CCN(C)CC3)c(F)cc3c(=O)c(C(=O)O)cn1c23.O [LEVOFLOXACIN] | 8 | – | 33.6 | 72.2 | 34.5 | 78.9 | 8 | 1 | > 64 | – | – | – | – | – | – | –
10 | C[C@@H](O)[C@H]1C(=O)N2C(C(=O)O)=C(S[C@@H]3CN[C@H](C(=O)N(C)C)C3)[C@H](C)[C@H]12 [MEROPENEM] | ≤ 0.03 | 0.25 (≈ 0.652 µM) | 0 | 0 | 0 | 0 | 16 | 4 (≈ 10.4 µM) | 64 (≈ 167 µM) | – | – | – | – | – | – | –
11 | COc1c(N2C[C@@H]3CCCN[C@@H]3C2)c(F)cc2c(=O)c(C(=O)O)cn(C3CC3)c12 [MOXIFLOXACIN] | 2 (≈ 4.98 µM) | 16 (≈ 39.9 µM) | – | – | – | – | – | ≤ 0.03 | 0.125 (≈ 0.311 µM) | – | – | – | – | – | – | –
12 | CCn1cc(C(=O)O)c(=O)c2ccc(C)nc21 [NALIDIXIC ACID] | 128 (≈ 551 µM) | 128 (≈ 551 µM) | 40.1 | 83.3 | 41.4 | 94.7 | 32 | 2 (≈ 8.61 µM) | 8 (≈ 34.4 µM) | – | – | – | – | – | – | –
13 | CCn1cc(C(=O)O)c(=O)c2cc(F)c(N3CCNCC3)cc21 [NORFLOXACIN] | 64 (≈ 200 µM) | > 64 | 39.6 | 83.3 | 40.9 | 94.7 | 16 | 8 (≈ 25.1 µM) | 256 (≈ 802 µM) | – | – | – | – | – | – | –
14 | CC1COc2c(N3CCN(C)CC3)c(F)cc3c(=O)c(C(=O)O)cn1c23 (centres undefined) [OFLOXACIN] | 16 (≈ 44.3 µM) | 64 (≈ 177 µM) | 40.6 | 83.3 | 40.9 | 84.2 | 8 | 0.25 (≈ 0.692 µM) | 32 (≈ 88.6 µM) | – | – | – | – | – | – | –
15 | N[C@@H]1CN(c2c(F)cc3c(=O)c(C(=O)O)cn([C@@H]4C[C@@H]4F)c3c2Cl)CC12CC2 [SITAFLOXACIN ANHYDROUS] | 0.125 (≈ 0.305 µM) | 0.5 (≈ 1.22 µM) | – | – | – | – | – | 0.5 (≈ 1.22 µM) | 1 (≈ 2.44 µM) | – | – | – | – | – | – | –
16 | CC[C@H]1OC(=O)[C@H](C)C(=O)[C@H](C)[C@@H](O[C@@H]2O[C@H](C)C[C@H](N(C)C)[C@H]2O)[C@](C)(OC)C[C@@H](C)C(=O)[C@H](C)[C@H]2N(CCCCn3cnc(-c4cccnc4)c3)C(=O)O[C@]12C [TELITHROMYCIN] | 32 (≈ 39.4 µM) | > 128 | – | – | – | – | – | 0.064 (≈ 0.0788 µM) | 0.25 (≈ 0.308 µM) | – | – | – | – | – | – | –
17 | CN(C)[C@@H]1C(O)=C(C(N)=O)C(=O)[C@@]2(O)C(O)=C3C(=O)c4c(O)cccc4[C@@](C)(O)[C@H]3C[C@@H]12 [TETRACYCLINE] | 128 (≈ 288 µM) | > 128 | 26.9 | 66.7 | 28.1 | 73.7 | 16 | 2 (≈ 4.5 µM) | 8 (≈ 18 µM) | – | – | – | – | – | – | –
18 | CN(C)c1cc(NC(=O)CNC(C)(C)C)c(O)c2c1C[C@H]1C[C@H]3[C@H](N(C)C)C(O)=C(C(N)=O)C(=O)[C@@]3(O)C(O)=C1C2=O [TIGECYCLINE] | – | – | 0 | 0 | 0 | 0 | 0.5 | – | – | – | – | 0.008 (≈ 0.0137 µM) | 0.032 (≈ 0.0546 µM) | 0.008 (≈ 0.0137 µM) | 0.023 (≈ 0.0393 µM) | >0.5
19 | GENTAMICIN | 0.5 | 0.5 | 0.9 | 0 | 0.9 | 0 | 16 | 4 | 64 | – | – | – | – | – | – | –
